According to patent US20260315604A1, “OTUB1 Small-Molecule Binders and OTUB1-recruiting Deubiquitinase-targeting Chimeras (DUBTACs)” (ICAHN SCHOOL OF MEDICINE AT MOUNT SINAI, priority 2023, published 2026):

Target: T1, Human OTUB1 wild-type (Homo sapiens, UniProt Q96FW1)
T1 construct: His tag (N); made in house; host or cells: E. coli BL21-CodonPlus (DE3)-RIPIL
Assay: Covalent modification of OTUB1 (adduct formation), mass spectrometry-based assay (OTUB1 covalent binders; selected CFTR or cGAS based bivalent compounds)
Assay type: binding
Conditions: covalent adduct formation with OTUB1 protein
Outline: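 His-tagged human OTUB1 (10 μM), E. coli-expressed, incubated with compound (2500 μM) in 50 mM Tris-HCl pH 7.5, 150 mM NaCl, 0.5 mM TCEP for 1 h at room temperature. Adduct detected by intact-protein LC/ESI-TOF mass spectrometry after buffer exchange; duplicates.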

T1 sequence (Q96FW1 whole entry): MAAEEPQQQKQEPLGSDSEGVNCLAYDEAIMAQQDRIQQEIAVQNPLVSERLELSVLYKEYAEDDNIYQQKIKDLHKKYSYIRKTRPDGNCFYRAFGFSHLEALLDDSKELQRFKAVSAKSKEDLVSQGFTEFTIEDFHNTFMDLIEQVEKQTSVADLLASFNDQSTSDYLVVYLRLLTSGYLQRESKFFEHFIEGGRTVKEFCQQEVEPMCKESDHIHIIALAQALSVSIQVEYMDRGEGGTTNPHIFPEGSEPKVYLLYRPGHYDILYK

SMILES | % of OTUB1 modified [%]
CN(C)C/C=C/C(=O)N1C2CC1CN(C(=O)c1ccc(C#CCO)s1)C2 [XS197-94, (E)-4-(dimethylamino)-1-(3-(5-(3-hydroxyprop-1-yn-1-yl)thiophene-2-carbonyl)-3,6-diazabicyclo[3.1.1]heptan-6-yl)but-2-en-1-one] | 80
CC(=O)OCC#Cc1ccc(C(=O)N2CC3CC(C2)N3C(=O)/C=C/CN(C)C)s1 [XS197-96, (E)-3-(5-(6-(4-(dimethylamino)but-2-enoyl)-3,6-diazabicyclo[3.1.1]heptane-3-carbonyl)thiophen-2-yl)prop-2-yn-1-yl acetate] | 45
CC(=O)N1CC2(CC(C(=O)N3CC4CC(C3)N4C(=O)/C=C/CN(C)C)C2)C1 [XS197-133, (E)-1-(3-(2-acetyl-2-azaspiro[3.3]heptane-6-carbonyl)-3,6-diazabicyclo[3.1.1]heptan-6-yl)-4-(dimethylamino)but-2-en-1-one] | 25
CC(=O)N1CCC(c2ccc(N3CC4CCC(C3=O)N4C(=O)/C=C/CN(C)C)s2)CC1 (stereo not drawn) [XS197-145, (E)-3-(5-(1-acetylpiperidin-4-yl)thiophen-2-yl)-8-(4-(dimethylamino)but-2-enoyl)-3,8-diazabicyclo[3.2.1]octan-2-one] | 90
CC(=O)N1CCC2(CC1)CC(C(=O)N1CC3CC(C1)N3C(=O)/C=C/CN(C)C)C2 [XS197-176, (E)-1-(3-(7-acetyl-7-azaspiro[3.5]nonane-2-carbonyl)-3,6-diazabicyclo[3.1.1]heptan-6-yl)-4-(dimethylamino)but-2-en-1-one] | 30
Cc1ccc(N2CC3CCC(C2=O)N3C(=O)C#CCN(C)C)s1 (stereo not drawn) [XS197-185, 8-(4-(dimethylamino)but-2-ynoyl)-3-(5-methylthiophen-2-yl)-3,8-diazabicyclo[3.2.1]octan-2-one] | 95
CN(C)C/C=C/C(=O)N1Cc2ccccc2C1 [XS197-186, (E)-4-(dimethylamino)-1-(isoindolin-2-yl)but-2-en-1-one] | 15
Cc1ccc(NC(=O)C2(C)CN(C(=O)/C=C/CN(C)C)C2)s1 [XS209-21, (E)-1-(4-(dimethylamino)but-2-enoyl)-3-methyl-N-(5-methylthiophen-2-yl)azetidine-3-carboxamide] | 22
Cc1ccc(NC(=O)C2(O)CN(C(=O)/C=C/CN(C)C)C2)s1 [XS209-22, (E)-1-(4-(dimethylamino)but-2-enoyl)-3-hydroxy-N-(5-methylthiophen-2-yl)azetidine-3-carboxamide] | 47
Cc1cnc(NC(=O)C2(C)CN(C(=O)/C=C/CN(C)C)C2)o1 [XS209-23, (E)-1-(4-(dimethylamino)but-2-enoyl)-3-methyl-N-(5-methyloxazol-2-yl)azetidine-3-carboxamide] | 10
COc1ccc2c(c1)CN(C(=O)/C=C/CN(C)C)C2 [XS209-25, (E)-4-(dimethylamino)-1-(5-methoxyisoindolin-2-yl)but-2-en-1-one] | 5
Cc1ccc(C(=O)N2CC3CC(C2)N3C(=O)C#CCN(C)C)s1 [XS209-26, 4-(dimethylamino)-1-(3-(5-methylthiophene-2-carbonyl)-3,6-diazabicyclo[3.1.1]heptan-6-yl)but-2-yn-1-one] | 98
CCC(=O)N1CC2CC(C1)N2C(=O)/C=C/CN(C)C [XS209-28, (E)-4-(dimethylamino)-1-(3-propionyl-3,6-diazabicyclo[3.1.1]heptan-6-yl)but-2-en-1-one] | 25
CN(C)C/C=C/C(=O)N1C2CCC1C(=O)N(C1=CCCCC1)C2 (stereo not drawn) [XS209-30, (E)-3-(cyclohex-1-en-1-yl)-8-(4-(dimethylamino)but-2-enoyl)-3,8-diazabicyclo[3.2.1]octan-2-one] | 75
Cc1cnc(NC(=O)C2(C)CN(C(=O)/C=C/CN(C)C)C2)s1 [XS209-38, (E)-1-(4-(dimethylamino)but-2-enoyl)-3-methyl-N-(5-methylthiazol-2-yl)azetidine-3-carboxamide] | 20
Cc1cnc(NC(=O)C2(O)CN(C(=O)/C=C/CN(C)C)C2)s1 [XS209-39, (E)-1-(4-(dimethylamino)but-2-enoyl)-3-hydroxy-N-(5-methylthiazol-2-yl)azetidine-3-carboxamide] | 40
CCCC(=O)N1CC2CC(C1)N2C(=O)/C=C/CN(C)C [XS209-40, (E)-1-(3-butyryl-3,6-diazabicyclo[3.1.1]heptan-6-yl)-4-(dimethylamino)but-2-en-1-one] | 60
CC(=O)N1CCC2(CCC(C(=O)N3CC4CC(C3)N4C(=O)/C=C/CN(C)C)CC2)C1 (stereo not drawn) [XS209-53, (E)-1-(3-(2-acetyl-2-azaspiro[4.5]decane-8-carbonyl)-3,6-diazabicyclo[3.1.1]heptan-6-yl)-4-(dimethylamino)but-2-en-1-one] | 40

SMILES | % of OTUB1 modified [%]
CC(=O)N1CC2(CCC(C(=O)N3CC4CC(C3)N4C(=O)/C=C/CN(C)C)CC2)C1 [XS209-54, (E)-1-(3-(2-acetyl-2-azaspiro[3.5]nonane-7-carbonyl)-3,6-diazabicyclo[3.1.1]heptan-6-yl)-4-(dimethylamino)but-2-en-1-one] | 35
Cc1cnc(C(=O)N2CC3CC(C2)N3C(=O)/C=C/CN(C)C)s1 [XS209-65, (E)-4-(dimethylamino)-1-(3-(5-methylthiazole-2-carbonyl)-3,6-diazabicyclo[3.1.1]heptan-6-yl)but-2-en-1-one] | 80
Cc1ccc(N2CC3CCC(C2=O)N3C(=O)C#CC(C)(C)N(C)C)s1 (stereo not drawn) [XS209-74, 8-(4-(dimethylamino)-4-methylpent-2-ynoyl)-3-(5-methylthiophen-2-yl)-3,8-diazabicyclo[3.2.1]octan-2-one] | 98
Cc1ccc(C(=O)N2CC3CC(C2)N3C(=O)C#CC(C)(C)N(C)C)s1 [XS209-75, 4-(dimethylamino)-4-methyl-1-(3-(5-methylthiophene-2-carbonyl)-3,6-diazabicyclo[3.1.1]heptan-6-yl)pent-2-yn-1-one] | 75
Cc1cnc(C(=O)N2CC3CC(C2)N3C(=O)/C=C/CN(C)C)o1 [XS209-92, (E)-4-(dimethylamino)-1-(3-(5-methyloxazole-2-carbonyl)-3,6-diazabicyclo[3.1.1]heptan-6-yl)but-2-en-1-one] | 15
Cc1ccc(NC(=O)C2(O)CN(C(=O)C#CCN(C)C)C2)s1 [XS209-99, 1-(4-(dimethylamino)but-2-ynoyl)-3-hydroxy-N-(5-methylthiophen-2-yl)azetidine-3-carboxamide] | 98
Cc1ccc(NC(=O)C2(O)CN(C(=O)C#CC(C)(C)N(C)C)C2)s1 [XS209-100, 1-(4-(dimethylamino)-4-methylpent-2-ynoyl)-3-hydroxy-N-(5-methylthiophen-2-yl)azetidine-3-carboxamide] | 25
CC(=O)N1CC2CC(C1)N2C(=O)C#CCN(C)C [XS209-101, 1-(3-acetyl-3,6-diazabicyclo[3.1.1]heptan-6-yl)-4-(dimethylamino)but-2-yn-1-one] | 100
Cc1ccc(NC(=O)C2CC3CCC(C2)N3C(=O)/C=C/CN(C)C)s1 (stereo not drawn) [XS209-122, (E)-8-(4-(dimethylamino)but-2-enoyl)-N-(5-methylthiophen-2-yl)-8-azabicyclo[3.2.1]octane-3-carboxamide] | 2
Cc1ccc(C(=O)NC2CC3CCC(C2)N3C(=O)/C=C/CN(C)C)s1 (stereo not drawn) [XS209-139, (E)-N-(8-(4-(dimethylamino)but-2-enoyl)-8-azabicyclo[3.2.1]octan-3-yl)-5-methylthiophene-2-carboxamide] | 2
Cc1ccc(C(=O)Nc2ccc(NC(=O)/C=C/CN(C)C)cc2)s1 [XS209-165, (E)-N-(4-(4-(dimethylamino)but-2-enamido)phenyl)-5-methylthiophene-2-carboxamide] | 20
CCCC(=O)N1CC2CC(C1)N2C(=O)C#CCN(C)C [XS209-166, 1-(3-butyryl-3,6-diazabicyclo[3.1.1]heptan-6-yl)-4-(dimethylamino)but-2-yn-1-one] | 90
CCCC(=O)N1CC2CC(C1)N2C(=O)C#CC(C)(C)N(C)C [XS209-168, 1-(3-butyryl-3,6-diazabicyclo[3.1.1]heptan-6-yl)-4-(dimethylamino)-4-methylpent-2-yn-1-one] | 15
CN(C)CC#CC(=O)N1CC(C)(C(=O)Nc2cc3ccccc3s2)C1 [XS209-175, N-(benzo[b]thiophen-2-yl)-1-(4-(dimethylamino)but-2-ynoyl)-3-methylazetidine-3-carboxamide] | 90
CN(C)C/C=C/C(=O)N1CC(O)(C(=O)Nc2cc3c(s2)CCCC3)C1 [XS209-176, (E)-1-(4-(dimethylamino)but-2-enoyl)-3-hydroxy-N-(4,5,6,7-tetrahydrobenzo[b]thiophen-2-yl)azetidine-3-carboxamide] | 55
CC(=O)N1CCN(c2ccc(C(=O)N3CC4CC(C3)N4C(=O)/C=C/CN(C)C)s2)CC1 [XS209-184, (E)-1-(3-(5-(4-acetylpiperazin-1-yl)thiophene-2-carbonyl)-3,6-diazabicyclo[3.1.1]heptan-6-yl)-4-(dimethylamino)but-2-en-1-one] | 80
CN(C)C/C=C/C(=O)N1C2CC1CN(C(=O)c1ccc(N3CCN(C)CC3)s1)C2 [XS209-185, (E)-4-(dimethylamino)-1-(3-(5-(4-methylpiperazin-1-yl)thiophene-2-carbonyl)-3,6-diazabicyclo[3.1.1]heptan-6-yl)but-2-en-1-one] | 85
CN(C)CC#CC(=O)N1CC(C(=O)Nc2cc3ccccc3s2)C1 [XS224-106, N-(benzo[b]thiophen-2-yl)-1-(4-(dimethylamino)but-2-ynoyl)azetidine-3-carboxamide] | 98
